According to patent EP2719280A1, “Use of N-phenylethylpyrazole carboxamide derivatives or salts thereof for resistance management of phytopathogenic fungi” (priority 2012, dated 2014):

Assays:
[1] = tested on: Corynespora cassiicola (CORYCA); assay: In vitro microtiter plate assay, mycelial growth determined photometrically at 620nm; assay type: cell-based; details: 400 spores&mycelia / well; for after 3 days EC50 [ppm]: 3 days after inoculation; for after 5 days EC50 [ppm]: 5 days after inoculation; for after 7 days EC50 [ppm]: 7 days after inoculation
Protocol: (§1) In Vitro-activity against various strains of Corynespora cassiicola and Botrytis cinerea resistant to SDHIs
Pathogen: Corynespora cassiicola (CORYCA) originating from cucurbits in Florida (US) • 1. sensitive strain (S011/12) • 2. resistant strain S1 • 3. resistant strain S2
Spores and mycelia of isolates of Corynespora cassiicola used in the microtiter plate assays were received from four weeks old cultures grown on PDA at 20 °C under black light. Spores and mycelia in steril water were used to inoculate the growth medium with 400 spores/mycelia per well. In the microtiter plate assay potato dextrose broth (PDB) was used as growth medium containing 25 mg/L Enrofloxacin. All isolates were tested with the following concentrations of boscalid and compound (1-1): 0 (control) 0.0064, 0.032, 0.16, 0.8, 4, 20 and 100 ppm. 96-well microplates were prepared in the following way: at first, 10 µl methanol (80 %) containing the amount of active ingredient required per concentration, was added to the cavities. After evaporation of the solvent and one day prior to inoculation, 140 ul growth medium was added to each well and the plate was stirred for at least two hours on a shaker. Then, 60 ul of the spore suspension, prepared as described above, were given into each cavity. The plates were incubated at 300 rpm on a shaker for 7 days at 24°C. Mycelia growth was determined photometrically at 620nm, three, five and seven days after inoculation. EC50 values were calculated according to the extinction values.

[2] = tested on: Botrytis cinerea (BOTRCI); assay: as above; assay type: cell-based; details: succinate medium; for after 4 days EC50 [ppm]: 4 days after inoculation; for after 6 days EC50 [ppm]: 6 days after inoculation
Protocol: as §1
Pathogen: Botrytis cinerea (BOTRCI) sampled in European vineyards • 1. sensitive strain B047 • 2. resistant strain B 1 • 3. resistant strain B2 • 4. resistant strain B3 • 5. resistant strain B4 • 6. resistant strain B5 • 7. resistant strain B6
Conidia of isolates of Botrytis cinerea included in the microtiter plate assay were received from cultures grown at 20°C under black light for eight days. Conidia in steril water were used to inoculate the growth medium with 20.000 spores/well. Liquid succinate medium + 40 mg/L Enrofloxacin were used as growth medium. All isolates were tested with the following concentrations of boscalid and compound (1-1): 0 (control) 0.00192, 0.0096, 0.048, 0.24, 1.2, 6 and 30 ppm. 96-well microplates were prepared in the following way: at first, 10 µl methanol (80 %) containing the amount of active ingredient required per concentration, was added to the cavities. After evaporation of the solvent and one day prior to inoculation, 100 ul growth medium was added to each well and the plate was stirred for at least two hours on a shaker. Then, 100 ul of the spore suspension, prepared as described above, were given into each cavity. The plates were incubated at 300 rpm on a shaker for 6 days at 20°C. Mycelia growth was determined photometrically at 620nm, four and six days after inoculation. EC50 values were calculated according to the extinction values.

[3] = tested on: Alternaria alternata SDH-mutants; details: boscalid-resistant isolates carrying SDH- mutations; in vitro; cited from earlier work

Row | SMILES | after 3 days EC50 [ppm] ([1]; isolate S011/12 (sensitive)) | after 5 days EC50 [ppm] ([1]; isolate S011/12 (sensitive)) | after 7 days EC50 [ppm] ([1]; isolate S011/12 (sensitive)) | after 3 days EC50 [ppm] ([1]; resistant strain S1) | after 5 days EC50 [ppm] ([1]; resistant strain S1) | after 7 days EC50 [ppm] ([1]; resistant strain S1) | after 3 days EC50 [ppm] ([1]; resistant strain S2) | after 5 days EC50 [ppm] ([1]; resistant strain S2) | after 7 days EC50 [ppm] ([1]; resistant strain S2) | after 4 days EC50 [ppm] ([2]; resistant strain B1) | after 6 days EC50 [ppm] ([2]; resistant strain B1) | after 4 days EC50 [ppm] ([2]; resistant strain B2) | after 6 days EC50 [ppm] ([2]; resistant strain B2) | after 4 days EC50 [ppm] ([2]; resistant strain B3) | after 6 days EC50 [ppm] ([2]; resistant strain B3) | after 4 days EC50 [ppm] ([2]; resistant strain B4) | after 6 days EC50 [ppm] ([2]; resistant strain B4) | after 4 days EC50 [ppm] ([2]; resistant strain B5) | after 6 days EC50 [ppm] ([2]; resistant strain B5) | after 4 days EC50 [ppm] ([2]; resistant strain B6) | other results
1 | O=C(Nc1ccccc1-c1ccc(Cl)cc1)c1cccnc1Cl [Boscalid] | 0,519 ppm | 1,387 ppm | 1,225 ppm | >100 ppm | >100 ppm | >100 ppm | >100 ppm | >100 ppm | >100 ppm | >30 ppm | >30 ppm | >30 ppm | >30 ppm | >30 ppm | >30 ppm | >30 ppm | >30 ppm | >30 ppm | >30 ppm | >30 ppm | after 6 days EC50 [ppm] ([2]; resistant strain B6): >30 ppm; after 4 days EC50 [ppm] ([2]; sensitive strain B047): 0,286 ppm; after 6 days EC50 [ppm] ([2]; sensitive strain B047): 0,317 ppm
2 | COC(c1ccc(Cl)cc1Cl)C(C)NC(=O)c1cn(C)nc1C(F)F (stereo not drawn) [Compound (1-1), 3-difluoromethyl-1-methyl-1H-pyrazole-4-carboxylic acid [2-(2,4-dichlorophenyl)-2-methoxy-1-methyl-ethyl]-amide] | 0,106 ppm | 0,368 ppm | 0,341 ppm | 1,204 ppm | 1,971 ppm | 1,635 ppm | 2,583 ppm | 7,653 ppm | 10,162 ppm | 4,449 ppm | 6,467 ppm | 2,759 ppm | 3,073 ppm | 1,762 ppm | 1,798 ppm | 2,166 ppm | 1,905 ppm | 14,663 ppm | 18,965 ppm | 0,875 ppm | after 6 days EC50 [ppm] ([2]; resistant strain B6): 1,390 ppm; after 4 days EC50 [ppm] ([2]; sensitive strain B047): 0,288 ppm; after 6 days EC50 [ppm] ([2]; sensitive strain B047): 0,290 ppm
3 | O=C(NCCc1ncc(C(F)(F)F)cc1Cl)c1ccccc1C(F)(F)F [fluopyram] | – | – | – | – | – | – | – | – | – | – | – | – | – | – | – | – | – | – | – | – | mycelial growth [3]: strongly inhibited
4 | CC(C)CC(C)c1sccc1NC(=O)c1cn(C)nc1C(F)(F)F (stereo not drawn) [penthiopyrad] | – | – | – | – | – | – | – | – | – | – | – | – | – | – | – | – | – | – | – | – | mycelial growth [3]: not affected
